Source: ChEMBL document CHEMBL3865798, “Engineering another class of anti-tubercular lead: Hit to lead optimization of an intriguing class of gyrase ATPase inhibitors” (Eur J Med Chem, 2016)
≈ marks a conversion by molar mass, not a printed value.

How the values were obtained:
[1] = Growth inhibition of mouse RAW264.7 cells at 100 uM after 48 hrs by MTT assay; format: cell-based; conditions: read-out: GI
[2] = molecular target: DNA gyrase subunit B (Mycobacterium smegmatis (strain ATCC 700084 / mc(2)155), UniProt A0QNE0)
DNA gyrase subunit B (Mycobacterium smegmatis (strain ATCC 700084 / mc(2)155), UniProt A0QNE0), sequence (A0QNE0 whole entry): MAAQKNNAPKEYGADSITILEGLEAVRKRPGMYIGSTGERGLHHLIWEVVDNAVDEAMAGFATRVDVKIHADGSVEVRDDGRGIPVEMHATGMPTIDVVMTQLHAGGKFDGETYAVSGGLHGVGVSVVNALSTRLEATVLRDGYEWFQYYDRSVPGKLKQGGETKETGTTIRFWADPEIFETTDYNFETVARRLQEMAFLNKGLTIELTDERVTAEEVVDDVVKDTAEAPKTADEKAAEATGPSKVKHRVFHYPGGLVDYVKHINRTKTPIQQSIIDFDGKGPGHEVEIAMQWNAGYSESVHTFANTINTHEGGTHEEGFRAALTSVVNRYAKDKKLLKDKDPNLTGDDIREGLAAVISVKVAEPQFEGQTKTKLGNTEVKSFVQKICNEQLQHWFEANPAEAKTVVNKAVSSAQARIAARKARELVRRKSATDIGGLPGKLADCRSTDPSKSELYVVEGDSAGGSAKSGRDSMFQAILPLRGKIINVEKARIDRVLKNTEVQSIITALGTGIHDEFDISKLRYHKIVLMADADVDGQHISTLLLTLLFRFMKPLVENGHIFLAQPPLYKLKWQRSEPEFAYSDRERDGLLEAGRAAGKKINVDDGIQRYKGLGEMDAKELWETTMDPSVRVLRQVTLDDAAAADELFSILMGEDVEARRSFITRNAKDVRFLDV
Description: Inhibition of Mycobacterium smegmatis 155 6His-tagged DNA gyrase B catalytic domain ATPase activity expressed in Escherichia coli BL21 (DE3) pLysS cells assessed as inorganic phosphate release after 120 mins in presence of ATP by malachite green dye based assay

[3] = test system: Mycobacterium tuberculosis; assay: microbe, parasite or virus in culture; conditions: H37Rv, 168 h
Description: Antimycobacterial activity against Mycobacterium tuberculosis H37Rv after 7 days by microplate alamar blue assay

[4] = Total clearance in Wistar rat at 1 mg/kg, iv administered as single dose; format: ADME, organism-based; conditions: in vivo
[5] = Tmax in Wistar rat at 20 mg/kg, po administered as single dose; format: ADME, organism-based; conditions: in vivo
[6] = Time at which plasma concentration stays above in vitro Mycobacterium DNA gyrase IC50 in Wistar rat at 20 mg/kg, po; format: ADME, organism-based; conditions: in vivo
[7] = AUC (0 to t) in Wistar rat at 1 mg/kg, iv administered as single dose; format: ADME, organism-based; conditions: in vivo
[8] = Protein binding in rat plasma by HPLC analysis; format: ADME, cell-free
[9] = Cmax in Wistar rat at 20 mg/kg, po administered as single dose; format: ADME, organism-based; parameters: dose 20 mg/kg, route oral; conditions: in vivo
[10] = Protein binding in human plasma at 2500 ng/ml by HPLC analysis; format: ADME, cell-free; conditions: read-out: PPB (converted)
[11] = AUC (0 to t) in Wistar rat at 20 mg/kg, po administered as single dose; format: ADME, organism-based; conditions: in vivo
[12] = Oral bioavailability in Wistar rat at 20 mg/kg administered as single dose; format: ADME, organism-based; conditions: in vivo
[13] = Protein binding in human plasma at 100 ng/ml by HPLC analysis; format: ADME, cell-free; conditions: read-out: PPB (converted)
[14] = Protein binding in human plasma by HPLC analysis; format: ADME, cell-free
[15] = Protein binding in rat plasma at 5000 ng/ml by HPLC analysis; format: ADME, cell-free; conditions: read-out: PPB (converted)
[16] = Protein binding in rat plasma at 2500 ng/ml by HPLC analysis; format: ADME, cell-free; conditions: read-out: PPB (converted)
[17] = Apparent elimination half life in Wistar rat at 1 mg/kg, iv administered as single dose; format: ADME, organism-based; conditions: in vivo, read-out: betat1/2(app) (converted)
[18] = molecular target: DNA gyrase subunit B (Mycobacterium smegmatis (strain ATCC 700084 / mc(2)155)) (UniProt A0QNE0); assay: Binding affinity to Mycobacterium smegmatis 155 6His-tagged DNA gyrase B catalytic domain expressed in Escherichia coli BL21 (DE3) pLysS cells assessed as change in melting temperature by SYPRO orange dye based differential scanning fluorimetric analysis; conditions: Mycolicibacterium smegmatis MC2 155
DNA gyrase subunit B (Mycobacterium smegmatis (strain ATCC 700084 / mc(2)155)), sequence (A0QNE0 2-675 limits assumed): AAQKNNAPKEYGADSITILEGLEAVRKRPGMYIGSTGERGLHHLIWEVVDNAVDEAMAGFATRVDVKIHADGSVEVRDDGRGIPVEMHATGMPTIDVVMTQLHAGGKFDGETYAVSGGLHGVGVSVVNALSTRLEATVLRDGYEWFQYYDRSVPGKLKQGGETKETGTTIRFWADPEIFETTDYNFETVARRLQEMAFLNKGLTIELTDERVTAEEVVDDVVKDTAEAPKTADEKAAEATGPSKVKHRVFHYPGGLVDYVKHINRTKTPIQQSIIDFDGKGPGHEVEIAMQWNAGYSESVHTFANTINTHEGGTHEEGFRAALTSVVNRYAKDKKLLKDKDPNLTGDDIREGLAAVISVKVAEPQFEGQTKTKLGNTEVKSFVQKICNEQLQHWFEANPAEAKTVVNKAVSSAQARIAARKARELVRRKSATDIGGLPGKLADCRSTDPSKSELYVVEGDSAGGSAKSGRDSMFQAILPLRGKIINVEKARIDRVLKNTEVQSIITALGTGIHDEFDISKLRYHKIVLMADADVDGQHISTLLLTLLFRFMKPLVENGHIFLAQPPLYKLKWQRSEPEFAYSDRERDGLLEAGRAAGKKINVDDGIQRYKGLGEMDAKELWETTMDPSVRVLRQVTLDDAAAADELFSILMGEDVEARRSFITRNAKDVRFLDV

[19] = AUC (0 to infinity) in Wistar rat at 20 mg/kg, po administered as single dose; format: ADME, organism-based; parameters: dose 20 mg/kg, time infinity, route oral; conditions: in vivo
[20] = AUC (0 to infinity) in Wistar rat at 1 mg/kg, iv administered as single dose; format: ADME, organism-based; parameters: dose 1 mg/kg, route intravenous, time infinity; conditions: in vivo
[21] = Volume of distribution in Wistar rat at 1 mg/kg, iv administered as single dose; format: ADME, organism-based; conditions: in vivo
[22] = Protein binding in rat plasma at 100 ng/ml by HPLC analysis; format: ADME, cell-free; conditions: read-out: PPB (converted)
[23] = Protein binding in human plasma at 5000 ng/ml by HPLC analysis; format: ADME, cell-free; conditions: read-out: PPB (converted)

Compound	inhibition at 48 h, 100 µM [1] [%]	IC50 [2] [µM]	MIC [3] [µM]	further results
O=[N+]([O-])c1ccc(NC(=S)N2CCN(c3ccnc4cc(Cl)ccc34)CC2)cc1	39.9	6.8	14.3 (≈ 6.13 µg/mL)	
O=C(NCc1ccccc1)N1CCN(c2ccnc3cc(Cl)ccc23)CC1	25.2	6.1	17.7 (≈ 6.73 µg/mL)	
CO[C@H]1/C=C/O[C@@]2(C)Oc3c(C)c(O)c4c(O)c(c(/C=N/N5CCN(C)CC5)c(O)c4c3C2=O)NC(=O)/C(C)=C\C=C\[C@H](C)[C@H](O)[C@@H](C)[C@@H](O)[C@@H](C)[C@H](OC(C)=O)[C@@H]1C [RIFAMPIN]			0.23 (≈ 0.189 µg/mL)	
O=C(CN1CCN(c2ccnc3cc(Cl)ccc23)CC1)NCCc1ccccn1	26.3	30.4	61 (≈ 25 µg/mL)	
O=C(Nc1ccc(F)cc1)N1CCN(c2ccnc3cc(Cl)ccc23)CC1	17.6	3.1	15.3 (≈ 5.88 µg/mL)	
O=C(c1cc2cc(Cl)ccc2[nH]1)N1CCN(c2ccnc3cc(Cl)ccc23)CC1	29.8	10.3	14.7 (≈ 6.25 µg/mL)	
O=C(c1cc2ccccc2[nH]1)N1CCN(c2ccnc3cc(Cl)ccc23)CC1	34.6	8.53	16 (≈ 6.25 µg/mL)	
CCNC(=S)N1CCN(c2ccnc3cc(Cl)ccc23)CC1	21.9	40.6	74.6 (≈ 25 µg/mL)	
O=C(CN1CCN(c2ccnc3cc(Cl)ccc23)CC1)Nc1cc(C(F)(F)F)ccc1Cl	24.7	31.3	24.2 (≈ 11.7 µg/mL)	
Cc1ccc(NC(=O)N2CCN(c3ccnc4cc(Cl)ccc34)CC2)cc1	33.9	16	32.8 (≈ 12.5 µg/mL)	
O=C(CN1CCN(c2ccnc3cc(Cl)ccc23)CC1)Nc1ccccc1	26.2	33.1	35.5 (≈ 13.5 µg/mL)	
Fc1ccc(NC(=S)N2CCN(c3ccnc4cc(Cl)ccc34)CC2)cc1	23.9	2.5	7.8 (≈ 3.13 µg/mL)	clearance [4]: 13.3 mL/min/kg; Tmax [5]: 2.2 h; Time [6]: > 6 h; AUC(0-t) [7]: 1240 ng·h/mL; PPB [8]: Dose-dependent effect; Cmax [9]: 2910 ng/mL; fraction unbound at 2500 ng/ml [10]: 0.064; AUC(0-t) [11]: 18800 ng·h/mL; bioavailability [12]: 71.2%; fraction unbound at 100 ng/ml [13]: 0.078; PPB [14]: Dose-dependent effect; fraction unbound at 5000 ng/ml [15]: 0.046; fraction unbound at 2500 ng/ml [16]: 0.052; half-life [17]: 2.04 h; ΔTm [18]: 4.1 °C; AUC(0-inf) [19]: 19300 ng·h/mL; AUC(0-inf) [20]: 1350 ng·h/mL; Vd [21]: 0.99 L/kg; fraction unbound at 100 ng/ml [22]: 0.065; fraction unbound at 5000 ng/ml [23]: 0.057
S=C(Nc1ccc(Cl)cc1)N1CCN(c2ccnc3cc(Cl)ccc23)CC1	34.2	10.7	30 (≈ 12.5 µg/mL)	
O=C(Nc1ccc([N+](=O)[O-])cc1)N1CCN(c2ccnc3cc(Cl)ccc23)CC1	41.8 to 42	9.2	30.4 (≈ 12.5 µg/mL)	
CC(C)NC(=S)N1CCN(c2ccnc3cc(Cl)ccc23)CC1	36.3	40.4	71.6 (≈ 25 µg/mL)	
CCNC(=O)N1CCN(c2ccnc3cc(Cl)ccc23)CC1	27	45.3	157 (≈ 50 µg/mL)	
COc1ccc(NC(=O)N2CCN(c3ccnc4cc(Cl)ccc34)CC2)cc1	25.3	21.1	31.5 (≈ 12.5 µg/mL)	
O=C(c1ccc[nH]1)N1CCN(c2ccnc3cc(Cl)ccc23)CC1	34.2	14.2	18.3 (≈ 6.25 µg/mL)	
O=C(CN1CCN(c2ccnc3cc(Cl)ccc23)CC1)Nc1ccccn1	25.4	9.1	17.7 (≈ 6.76 µg/mL)	
O=C(CN1CCN(c2ccnc3cc(C(F)(F)F)ccc23)CC1)NCc1ccccn1	51.2	> 75	116 (≈ 50 µg/mL)	
CC(C)NC(=O)N1CCN(c2ccnc3cc(Cl)ccc23)CC1	34.4	43.9	155 (≈ 51.6 µg/mL)	
O=C(CN1CCN(c2ccnc3cc(Cl)ccc23)CC1)NCc1cccs1	33.4	14.8	31.2 (≈ 12.5 µg/mL)	
O=C(c1ccccn1)N1CCN(c2ccnc3cc(Cl)ccc23)CC1	23.6	11	35.4 (≈ 12.5 µg/mL)	
O=C(Nc1ccccc1)N1CCN(c2ccnc3cc(Cl)ccc23)CC1	30.9	7.6	17 (≈ 6.25 µg/mL)	

Compound	inhibition at 48 h, 100 µM [1] [%]	IC50 [2] [µM]	MIC [3] [µM]	further results
Clc1ccc2c(N3CCN(Cc4nc5ccccc5[nH]4)CC3)ccnc2c1	34.8	32.6	27.3 (≈ 10.3 µg/mL)	
O=C(CN1CCN(c2ccnc3cc(Cl)ccc23)CC1)Nc1nc2ccc([N+](=O)[O-])cc2s1	23.6	16.1	25.8 (≈ 12.5 µg/mL)	
O=[N+]([O-])c1cnc(N2CCN(c3ccnc4cc(Cl)ccc34)CC2)s1	35.1	9.6	33.2 (≈ 12.5 µg/mL)	
O=C(CN1CCN(c2ccnc3cc(Cl)ccc23)CC1)NCc1ccco1	21.1	16.2	32.5 (≈ 12.5 µg/mL)	
S=C(Nc1ccccc1)N1CCN(c2ccnc3cc(Cl)ccc23)CC1	16.5	4.12	16.3 (≈ 6.25 µg/mL)	
Clc1ccc2c(N3CCN(Cc4ccc[nH]4)CC3)ccnc2c1	12.6	16.9	76.5 (≈ 25 µg/mL)	
O=C(CN1CCN(c2ccnc3cc(Cl)ccc23)CC1)Nc1ncc([N+](=O)[O-])s1	11.3	14.6	31.2 (≈ 13.5 µg/mL)	
O=C(CN1CCN(c2ccnc3ccccc23)CC1)NCc1ccccn1	23.5	> 75	138 (≈ 50 µg/mL)	
CC1COc2c(N3CCN(C)CC3)c(F)cc3c(=O)c(C(=O)O)cn1c23 (stereo not drawn) [OFLOXACIN]			2.16 (≈ 0.781 µg/mL)	
COc1ccc(NC(=S)N2CCN(c3ccnc4cc(Cl)ccc34)CC2)cc1	23.1	11	30.3 (≈ 12.5 µg/mL)	
COc1ccc2c(N3CCN(CC(=O)NCc4ccccn4)CC3)ccnc2c1	33.5	51.6	63.9 (≈ 25 µg/mL)	
Clc1ccc2c(N3CCN(Cc4c[nH]c5ccccc45)CC3)ccnc2c1	22.2	8.3	16.2 (≈ 6.12 µg/mL)	
NNC(=O)c1ccncc1 [ISONIAZID]			0.66 (≈ 0.0905 µg/mL)	
O=C(c1cc2cc(F)ccc2[nH]1)N1CCN(c2ccnc3cc(Cl)ccc23)CC1	23.3	13.6	15.3 (≈ 6.25 µg/mL)	
S=C(NCc1ccccc1)N1CCN(c2ccnc3cc(Cl)ccc23)CC1	19.8	5.5	15.8 (≈ 6.25 µg/mL)	
O=C(CN1CCN(c2ccnc3cc(Cl)ccc23)CC1)NCc1ccccc1	15.3	23.8	63.3 (≈ 25 µg/mL)	
CC(=O)c1ccc(NC(=S)N2CCN(c3ccnc4cc(Cl)ccc34)CC2)cc1	27.2	27	58.8 (≈ 25 µg/mL)	
CC(=O)c1ccc(NC(=O)N2CCN(c3ccnc4cc(Cl)ccc34)CC2)cc1	26.2	18.8	30.6 (≈ 12.5 µg/mL)	
O=[N+]([O-])c1ccc(N2CCN(c3ccnc4cc(Cl)ccc34)CC2)c2nonc12	37.2	10.3	7.26 (≈ 2.98 µg/mL)	
O=C(Nc1ccc(Cl)cc1)N1CCN(c2ccnc3cc(Cl)ccc23)CC1	26.2	9.9	31.5 (≈ 12.6 µg/mL)	
Cc1ccc(NC(=S)N2CCN(c3ccnc4cc(Cl)ccc34)CC2)cc1	15.8	13.8	63 (≈ 25 µg/mL)	
CC(=O)c1ccc(NC(=O)CN2CCN(c3ccnc4cc(Cl)ccc34)CC2)cc1	29.5	7.6	14.5 (≈ 6.13 µg/mL)	
O=C(CN1CCN(c2ccnc3cc(Cl)ccc23)CC1)NCc1ccccn1	36.4	12.2	31.6 (≈ 12.5 µg/mL)	
COc1ccc2[nH]c(C(=O)N3CCN(c4ccnc5cc(Cl)ccc45)CC3)cc2c1	16.4	24.3	29.7 (≈ 12.5 µg/mL)	
